Measurements reported in PMC6269819, “Evaluation of the Biological Activity of Naturally Occurring 5,8-Dihydroxycoumarin” (Molecules, 2013).
Marks after values point to notes of the source that are not given here.

Columns and labels:
[1] = Signs of systemic toxicity and mortality in treated rats
[2] = system: Drosophila melanogaster wing cells; experiment: Somatic mutation and recombination test (SMART), wing spot test; assay type: in vivo
Procedure: The basic procedures for the D. melanogaster somatic mutation and recombination test (SMART) were performed according to Graf and co-workers. Two D. melanogaster strains (kindly provided by Dr. H. Frei, Zurich, Switzerland) were used in the present study: virgin females from the strain ORR/ORR; flr^3/ In (3LR) TM3, ri p^p sep l(3)89Aa bx^34e e Bd^S were mated with mwh/mwh males. The ORR strain has chromosomes 1 and 2 from a DDT-resistant Oregon line, which are characterized by constitutively over-expressed CYP450 genes. The CYP 450 enzymes play the main role in the bioactivation of xenobiotics, as well as natural products including phytochemicals. Thus, the use of this high-bioactivation strain of D. melanogaster facilitates the detection of promutagens of numerous classes of compounds. The markers mwh (multiple wing hairs) and flr^3 (misshapen, flare-like hairs) are recessive wing-hair mutations located on the third chromosome at 0.3 and 38.8 respectively.
Eggs from the crosses were collected over 10 h periods. Progeny were raised on the Instant Drosophila Medium (Sigma Chemical Co., St. Louis, MO, USA) at 25 °C. Two schedules of the larvae treatment were applied. Firstly, the crossed flies were permitted to lay eggs for 10 h in vials containing medium prepared with 5,8-DHC solution. Thus, the exposure duration was about 120 h (i.e., evolutionary period from fly egg till case-worm). According to the second schedule, the 72 ± 5 h-old larvae were exposed to 5,8-DHC by adding test solution to the surface of the medium and were fed on this medium for the rest of their development, during approximately 48 h. 5,8-DHC was dissolved in ethanol and then diluted with distilled water to the desired concentration, with the final ethanol concentration 5% v/v. The solutions were always prepared immediately before use. Solvent controls were included in all treatments. Methyl methanesulfonate was included in the assay as a positive control. Trans-heterozygous (mwh flr^+ / mwh^+ flr^3) flies were collected and stored in a 70% ethanol. The wings of adult flies were mounted on glass slides in Faure’s solution, coded and scored at 400× magnification (Nikon E200) for the presence of single (mwh or flr^3 phenotype) or twin (adjacent mwh and flr^3 clones) spots. The spots were recorded according to standard procedures. No less than 40 wings were analysed per each experimental point. Two repeated experiments were carried out.

[3] = test solution 0.1%, exposure duration 48 h
[4] = test solution 0.1%, exposure duration 120 h
[5] = test solution 0.25%, exposure duration 48 h
[6] = test solution 0.25%, exposure duration 120 h
[7] = test solution 0.5%, exposure duration 48 h
[8] = test solution 0.5%, exposure duration 120 h

## O=c1ccc2c(O)ccc(O)c2o1 [5,8-DHC, 5,8-Dihydroxycoumarin]
[1]; 20 mg/kg b.w., at 2–3 h after dose administration
  signs of systemic toxicity: sluggishness was observed in all rats
[1]; i.p. injection 100 mg/kg
  time to death after administration: 3 to 4 h
  toxicity and mortality: sluggishness and death of all treated animals
[1]; repeated treatment with 10 mg/kg b.w., since second dose administration
  signs of systemic toxicity: sluggishness
[2]; 0.5% 5,8-DHC, 120 h of treatment
  large single spots: 0.10 spots per wing
[2]; 48 h treatment
  increase in the number of somatic mutations: no statistically significant increase
[2]; 120 h treatment
  genotoxicity in SMART: slight genotoxicity
[2]; range over concentrations
  frequency of twin spots: 0–0.04 spots per wing
[2]; [3]
  Spots/wing (±S.E.M.): 0.27 ± 0.04 spots/wing
  Wings with spots (% ± S.E.M.): 26.8 ± 4.5%
[2]; [4]
  Spots/wing (±S.E.M.): 0.25 ± 0.04 ^a spots/wing
  Wings with spots (% ± S.E.M.): 22.4 ± 4.2%
[2]; [5]
  Spots/wing (±S.E.M.): 0.22 ± 0.04 spots/wing
  Wings with spots (% ± S.E.M.): 21.1 ± 4.3%
[2]; [6]
  Spots/wing (±S.E.M.): 0.30 ± 0.04 ^a spots/wing
  Wings with spots (% ± S.E.M.): 27.1 ± 4.5^a %
[2]; [7]
  Spots/wing (±S.E.M.): 0.27 ± 0.04 spots/wing
  Wings with spots (% ± S.E.M.): 25.0 ± 4.4%
[2]; [8]
  Spots/wing (±S.E.M.): 0.32 ± 0.04 ^a spots/wing
  Wings with spots (% ± S.E.M.): 28.9 ± 4.6^a %
